Measured values published in patent US12492181B2, “Gem-disubstituted piperidine melanocortin subtype-2 receptor (MC2R) antagonists and uses thereof” (Crinetics Pharmaceuticals, Inc., priority 2019, dated 2025).

Target: T1, hMC2 receptor (crude hMC2R membranes from CRE-bla-CHO-K1 cells stably expressing hMC2 receptor and hMRAP accessory protein) (Homo sapiens, UniProt Q01718)
T1 construct: crude membrane fractions
Assay: hMC2 membrane binding assay ([125I]ACTH (1-39) Tyr23, SPA)
Details: displacement of 0.2 nM [125I]ACTH (1-39) Tyr23 from hMC2R membranes, 1.5 hours at room temperature; read-out: MC2R binding potency
Summary of the method: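 Ki values come from non-linear regression of SPA scintillation counts, with compounds displacing [125I]ACTH(1-39) Tyr23. Membranes come from CRE-bla-CHO-K1 cells stably expressing hMC2 receptor together with hMRAP. They are preincubated with WGA-coated PVT SPA beads in 50 mM HEPES pH 7.4 with 0.20% BSA, Mg2+, Ca2+ and protease inhibitors.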

T1 sequence (Q01718 whole entry): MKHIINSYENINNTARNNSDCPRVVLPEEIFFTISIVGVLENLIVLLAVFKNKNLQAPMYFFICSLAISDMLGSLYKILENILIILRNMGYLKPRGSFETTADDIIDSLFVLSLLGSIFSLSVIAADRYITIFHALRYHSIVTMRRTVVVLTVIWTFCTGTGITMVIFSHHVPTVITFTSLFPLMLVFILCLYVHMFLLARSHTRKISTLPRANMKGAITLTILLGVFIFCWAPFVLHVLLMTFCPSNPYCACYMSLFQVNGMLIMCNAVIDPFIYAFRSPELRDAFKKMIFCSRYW
T1 sequence (Q8TCY5 whole entry partner): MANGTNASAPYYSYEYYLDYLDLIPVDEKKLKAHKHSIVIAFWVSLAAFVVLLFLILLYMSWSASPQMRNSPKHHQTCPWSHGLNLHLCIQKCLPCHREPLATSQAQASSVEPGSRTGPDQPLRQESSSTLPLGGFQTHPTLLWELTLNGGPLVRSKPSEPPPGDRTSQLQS

Row | SMILES | Ki [nM]
1 | COc1ncccc1-c1ccc(C2(C(=O)NCCN(C)C)CCN(c3ccc(C(F)(F)F)cc3F)CC2)cn1 [Compound 1-271, N-[2-(dimethylamino)ethyl]-1-[2-fluoro-4-(trifluoromethyl)phenyl]-4-{2′-methoxy-[2,3′-bipyridin]-5-yl}piperidine-4-carboxamide] | < 10
2 | CNCCNC(=O)C1(c2ccc(-c3cccnc3OC)nc2)CCN(c2ccc(C(F)(F)F)cc2F)CC1 [Compound 1-272, 1-[2-fluoro-4-(trifluoromethyl)phenyl]-4-{2′-methoxy-[2,3′-bipyridin]-5-yl}-N-[2-(methylamino)ethyl]piperidine-4-carboxamide] | < 10
3 | CNCCNC(=O)C1(c2ccc(-c3cccnc3OC)nc2)CCN(c2ccc(C(F)(F)F)cc2Cl)CC1 [Compound 1-274, 1-[2-chloro-4-(trifluoromethyl)phenyl]-4-{2′-methoxy-[2,3′-bipyridin]-5-yl}-N-[2-(methylamino)ethyl]piperidine-4-carboxamide] | < 10
4 | CN(C)[C@@H](CO)CNC(=O)C1(c2ccc(-c3cccn3C)nc2)CCN(c2ccc(C(F)(F)F)cc2C#N)CC1 [Compound 1-275, 1-[2-cyano-4-(trifluoromethyl)phenyl]-N-[(2R)-2-(dimethylamino)-3-hydroxypropyl]-4-[6-(1-methyl-1H-pyrrol-2-yl)pyridin-3-yl]piperidine-4-carboxamide] | < 10
5 | CN(C)CCNC(=O)C1(c2ccc(-c3cccn3C)nc2)CCN(c2ccc(C(F)(F)F)cc2F)CC1 [Compound 1-276, N-[2-(dimethylamino)ethyl]-1-[2-fluoro-4-(trifluoromethyl)phenyl]-4-[6-(1-methyl-1H-pyrrol-2-yl)pyridin-3-yl]piperidine-4-carboxamide] | < 10
6 | CN1C[C@@H](F)C[C@H]1CNC(=O)C1(c2ccc(-c3cccn3C)nc2)CCN(c2ccc(C(F)(F)F)cc2C#N)CC1 [Compound 1-277, 1-[2-cyano-4-(trifluoromethyl)phenyl]-N-{[(2S,4S)-4-fluoro-1-methylpyrrolidin-2-yl]methyl}-4-[6-(1-methyl-1H-pyrrol-2-yl)pyridin-3-yl]piperidine-4-carboxamide] | < 10
7 | CN1C[C@H](F)C[C@H]1CNC(=O)C1(c2ccc(-c3cccn3C)nc2)CCN(c2ccc(C(F)(F)F)cc2C#N)CC1 [Compound 1-278, 1-[2-cyano-4-(trifluoromethyl)phenyl]-N-{[(2S,4R)-4-fluoro-1-methylpyrrolidin-2-yl]methyl}-4-[6-(1-methyl-1H-pyrrol-2-yl)pyridin-3-yl]piperidine-4-carboxamide] | < 10
8 | CN1CC(F)(F)C[C@H]1CNC(=O)C1(c2ccc(-c3cccn3C)nc2)CCN(c2ccc(C(F)(F)F)cc2C#N)CC1 [Compound 1-279, 1-[2-cyano-4-(trifluoromethyl)phenyl]-N-{[(2S)-4,4-difluoro-1-methylpyrrolidin-2-yl]methyl}-4-[6-(1-methyl-1H-pyrrol-2-yl)pyridin-3-yl]piperidine-4-carboxamide] | 100 to 1000
9 | CN1CC(F)(F)C[C@@H]1CNC(=O)C1(c2ccc(-c3cccn3C)nc2)CCN(c2ccc(C(F)(F)F)cc2C#N)CC1 [Compound 1-280, 1-[2-cyano-4-(trifluoromethyl)phenyl]-N-{[(2R)-4,4-difluoro-1-methylpyrrolidin-2-yl]methyl}-4-[6-(1-methyl-1H-pyrrol-2-yl)pyridin-3-yl]piperidine-4-carboxamide] | 100 to 1000
10 | CNCCNC(=O)C1(c2ccc(-c3cccn3C)nc2)CCN(c2ccc(C(F)(F)F)cc2F)CC1 [Compound 1-281, 1-[2-fluoro-4-(trifluoromethyl)phenyl]-4-[6-(1-methyl-1H-pyrrol-2-yl)pyridin-3-yl]-N-[2-(methylamino)ethyl]piperidine-4-carboxamide] | < 10
11 | CN(C)CCNC(=O)C1(c2ccc(-c3cccn3C)nc2)CCN(c2ccc(C(F)(F)F)cc2Cl)CC1 [Compound 1-282, 1-[2-chloro-4-(trifluoromethyl)phenyl]-N-[2-(dimethylamino)ethyl]-4-[6-(1-methyl-1H-pyrrol-2-yl)pyridin-3-yl]piperidine-4-carboxamide] | < 10
12 | CNCCNC(=O)C1(c2ccc(-c3cccn3C)nc2)CCN(c2ccc(C(F)(F)F)cc2Cl)CC1 [Compound 1-283, 1-[2-chloro-4-(trifluoromethyl)phenyl]-4-[6-(1-methyl-1H-pyrrol-2-yl)pyridin-3-yl]-N-[2-(methylamino)ethyl]piperidine-4-carboxamide] | < 10
13 | CCOc1ncccc1-c1ncc(C2(C(=O)NCCNC)CCN(c3ccc(C(F)(F)F)cc3F)CC2)cc1F [Compound 1-287, 4-{2′-ethoxy-3-fluoro-[2,3′-bipyridin]-5-yl}-1-[2-fluoro-4-(trifluoromethyl)phenyl]-N-[2-(methylamino)ethyl]piperidine-4-carboxamide] | < 10

Next, values leading:

Row | Ki [nM] | SMILES
14 | < 10 | COc1ncccc1-c1ccc(C2(C(=O)NCCN(C)C)CCN(c3ccc(C(F)(F)F)cc3Cl)CC2)cn1 [Compound 1-273, 1-[2-chloro-4-(trifluoromethyl)phenyl]-N-[2-(dimethylamino)ethyl]-4-{2′-methoxy-[2,3′-bipyridin]-5-yl}piperidine-4-carboxamide]
15 | < 10 | CCOc1ncccc1-c1ncc(C2(C(=O)NCCN(C)C)CCN(c3ccc(C(F)(F)F)cc3F)CC2)cc1F [Compound 1-284, N-[2-(dimethylamino)ethyl]-4-{2′-ethoxy-3-fluoro-[2,3′-bipyridin]-5-yl}-1-[2-fluoro-4-(trifluoromethyl)phenyl]piperidine-4-carboxamide]
16 | < 10 | COc1ccccc1-c1ncc(C2(C(=O)NCCN(C)C)CCN(c3ccc(C(F)(F)F)cc3F)CC2)cc1F [Compound 1-285, N-[2-(dimethylamino)ethyl]-1-[2-fluoro-4-(trifluoromethyl)phenyl]-4-[5-fluoro-6-(2-methoxyphenyl)pyridin-3-yl]piperidine-4-carboxamide]
17 | < 10 | COc1ccccc1-c1ncc(C2(C(=O)NCCN(C)C)CCN(c3ccc(C(F)(F)F)cc3Cl)CC2)cc1F [Compound 1-286, 1-[2-chloro-4-(trifluoromethyl)phenyl]-N-[2-(dimethylamino)ethyl]-4-[5-fluoro-6-(2-methoxyphenyl)pyridin-3-yl]piperidine-4-carboxamide]
18 | < 10 | CCOc1ncccc1-c1ncc(C2(C(=O)NCCN(C)C)CCN(c3ccc(C(F)(F)F)cc3Cl)CC2)cc1F [Compound 1-288, 1-[2-chloro-4-(trifluoromethyl)phenyl]-N-[2-(dimethylamino)ethyl]-4-{2′-ethoxy-3-fluoro-[2,3′-bipyridin]-5-yl}piperidine-4-carboxamide]
19 | < 10 | CCOc1ccccc1-c1ncc(C2(C(=O)NCCN(C)C)CCN(c3ccc(C(F)(F)F)cc3F)CC2)cc1F [Compound 1-289, N-[2-(dimethylamino)ethyl]-4-[6-(2-ethoxyphenyl)-5-fluoropyridin-3-yl]-1-[2-fluoro-4-(trifluoromethyl)phenyl]piperidine-4-carboxamide]
20 | < 10 | CCOc1ccccc1-c1ncc(C2(C(=O)NCCNC)CCN(c3ccc(C(F)(F)F)cc3F)CC2)cc1F [Compound 1-290, 4-[6-(2-ethoxyphenyl)-5-fluoropyridin-3-yl]-1-[2-fluoro-4-(trifluoromethyl)phenyl]-N-[2-(methylamino)ethyl]piperidine-4-carboxamide]
